Data from patent US20260137820A1, “TRIFUNCTIONAL COMPOUND AND USE THEREOF” (PEKING UNIVERSITY, priority 2022, published 2026).

Experiments:
Human FAP Protein = biological target: T1, Human FAP Protein (Homo sapiens, UniProt Q12884); experiment: Surface plasmon resonance, multi-cycle mode; format: binding; conditions: SPR multi-cycle, 1:1 binding model
T1 construct: His; purchased Novoprotein (China)
T1 sequence (Q12884 1-760): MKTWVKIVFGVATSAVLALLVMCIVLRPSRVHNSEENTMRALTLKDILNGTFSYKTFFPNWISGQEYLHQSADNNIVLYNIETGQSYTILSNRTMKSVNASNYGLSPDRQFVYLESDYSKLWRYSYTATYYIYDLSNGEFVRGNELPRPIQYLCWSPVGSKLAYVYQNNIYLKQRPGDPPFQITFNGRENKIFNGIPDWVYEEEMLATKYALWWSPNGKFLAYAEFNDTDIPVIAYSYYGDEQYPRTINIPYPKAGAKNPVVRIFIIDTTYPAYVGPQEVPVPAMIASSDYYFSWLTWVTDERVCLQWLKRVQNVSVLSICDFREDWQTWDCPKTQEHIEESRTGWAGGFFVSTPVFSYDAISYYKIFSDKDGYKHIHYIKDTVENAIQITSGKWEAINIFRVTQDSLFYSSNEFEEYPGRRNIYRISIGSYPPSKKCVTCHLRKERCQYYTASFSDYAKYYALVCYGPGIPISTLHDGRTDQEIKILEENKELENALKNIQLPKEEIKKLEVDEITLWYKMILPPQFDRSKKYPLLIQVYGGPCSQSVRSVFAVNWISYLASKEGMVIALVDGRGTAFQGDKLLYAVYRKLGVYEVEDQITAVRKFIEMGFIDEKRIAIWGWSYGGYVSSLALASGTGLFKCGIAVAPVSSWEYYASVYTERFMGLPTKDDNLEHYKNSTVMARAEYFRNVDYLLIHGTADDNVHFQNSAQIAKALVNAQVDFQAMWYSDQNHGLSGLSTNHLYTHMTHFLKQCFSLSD
Protocol: According to US Pharmacopeia USP43 IMMUNOLOGICAL TEST METHODS-SURFACE PLASMON RESONANCE<1105> and Chinese Pharmacopoeia 2020, Volume IV, Surface plasmon resonance method, Label-free Immunochemistry (IV), 3429 Immunochemistry, General Rule, a surface plasmon resonance experiment was carried out.
A surface plasma chromatograph from Cytiva was used for measurement. Before protein injection, 400 mM condensing agent 1-ethyl-(3-dimethylaminopropyl)carbodiimide hydrochloride and 100 mM N-hydroxysuccinimide were mixed, and a CM5 sensor chip was activated with this mixture for 420 seconds at a flow rate of 10 μL/min. 50 μg/mL protein was then injected into an Fc2 sample channel at a flow rate of 10 μL/min to achieve a protein immobilization level of about 8000-15000 RU. In the control group, no protein was injected. Subsequently, the unreacted chip was blocked with 1M ethanolamine hydrochloride-NaOH at a flow rate of 10 μL/min for 420 seconds.
Different gradient solutions were injected into channels Fc1-Fc2 at a flow rate of 30 μL/min, followed by a 60-second binding phase and a 90-second dissociation phase, and data were collected.

FAP, DPP-4 and PREP = experiment: Binding selectivity to homologous proteins (competitive inhibition of enzyme substrate, IC50); format: biochemical; conditions: from IC50 values, pNA release
Protocol: Taking FAP target as an example, homologous proteins thereof include, but are not limited to, DPP-4 and PREP. The structural similarity thereof may lead to a decreased binding selectivity of the modified precursor molecules for the homologous proteins, resulting in an increased uptake in non-target organs.
The binding selectivity for homologous proteins was determined by a competitive inhibition experiment on the substrate of the enzymes, and the binding/inhibition selectivity thereof is indirectly evaluated by the median inhibitory concentration (IC50) values obtained.
By reference to the method described in Extended Structure-Activity Relationship and Pharmacokinetic Investigation of (4-Quinolinoyl)glycyl-2-cyanopyrrolidine Inhibitors of Fibroblast Activation Protein (FAP). Journal of Medicinal Chemistry 57, 3053-3074 (2014), published by Jansen et al., the initial rate of p-nitroaniline (pNA) released from the substrate (absorption at 405 nm) was measured by using a microplate reader (PerkinElmer, Victor™ X5) at 37° C. in a final volume of 200 μL to determine the kinetic properties of the enzyme activity. […]
The determination method for IC50 on FAP is as follows: the substrate Z-Gly-Pro-p-nitroanilide (50 μM, Cat #G-58468, HEOWNS) was used to measure FAP activity at pH 7.4. […] The mixture was then incubated at 37° C. for 6 hours, and the release of pNA was then measured. […]

HT-1080-FAP tumor [1] = experiment: ^177Lu radionuclide therapy experiment in tumor mouse model; format: in vivo; conditions: ^177Lu-labeled, treatment on day 0 and day 4, same or higher dose; vs normal saline or FAPI-04 control group
Protocol: (§1) When the average tumor size reached about 100 mm^3, HT-1080-FAP tumor mice in the same batch were randomly divided into five groups, with n=7 or 8 in each group. Two rounds of treatment were then carried out on day 0 and day 4. […] The tumor size and weight of the mice were monitored every 2 or 3 days.

HT-1080-FAP tumor [2] = experiment: ^225Ac radionuclide therapy experiment in tumor mouse model; format: in vivo; conditions: ^225Ac-labeled, treatment on day 0 and day 4, same or higher dose; vs normal saline or FAPI-04 control group
Protocol: as §1

HT-1080-FAP tumor [3] = experiment: PET/CT imaging in HT-1080-FAP tumor-bearing mouse model; format: in vivo; conditions: ^68Ga label, 18.5 MBq via tail vein, p<0.005
Protocol: Mouse model: Nu/Nu mice (SPF grade) were purchased from Beijing Charles River Laboratories (China) and injected subcutaneously with HT-1080-FAP cells to construct a tumor model with high FAP expression.
All PET/CT scans were carried out on Mediso nanoScan® PET 122S small animal PET/CT.
After a certain number of HT-1080-FAP tumor mice were taken and injected via the tail vein with 7.4-18.5 MBq of ^68Ga/^86Y-FAPI-04 (control) and ^68Ga/^86Y-FAPI-CB series molecules at specified time points (Note: the injection of the control and investigation molecules was separated apart by at least five half-lives of the nuclide to ensure that the radioactivity of the previous probe had almost completely decayed and was essentially completely metabolized), imaging was carried out at specified time points. In some examples, the mice were anesthetized and then sacrificed by neck breaking at a certain time point. Organs were dissected and taken for radioactivity measurement.
A ^68Ge-^68Ga generator was eluted with 5 mL of 0.6 M high-purity hydrochloric acid to obtain a Ga-68 hydrochloric acid solution. 1 mL of the Ga-68 solution after elution was taken, and 100 μL of 3 M sodium hydroxide and 130 μL of 3M sodium acetate were added to adjust the acidity to a final pH of 4.0. 12 μg of FAPI-CB-00 compound was added, and the reaction mixture was heated to 70° C. and maintained for 20 min. […]

LNCaP cells = experiment: Cell affinity determination, similar method; format: cell-based
Protocol: (§2) HT-1080-FAP cells were inoculated into a 24-well plate 24 hours in advance, with the density being about 30% (calculated and estimated), 10^5 cells (countable) per well. 0.5 mL of a complete medium was added. The medium was changed to a serum-free medium. 12 groups of FAPI-CB-01 solutions with a concentration gradient of 0-5000 nM were set up, with internal replicates n=4 for each group. […] 0.75 nM ^68Ga-FAPI-04 was added to each well, followed by incubation at 37° C. for 1 hour. After washing twice with cold PBS and lysis, the radioactivity count was measured.
(§3) Using a similar method, the corresponding targeting PSMA-CB-05, FOLR1-CB-06, SSTR2-CB-02, Nectin4-CB-02, and CXCR4-CB-03 were determined for affinity in LNCaP cells, KB cells, AR42J cells, SW-780 cells, or Daudi cells, respectively. All of these compounds maintained good affinity.

AR42J cells = experiment: Cell affinity determination, similar method; format: cell-based
Protocol: as §2, §3

N#C[C@@H]1CC(F)(F)CN1C(=O)CNC(=O)c1ccnc2ccc(OCCCN3CCN(C(=O)CN4CCN(CC(=O)O)CCN(CC(=O)O)CCN(CC(=O)O)CC4)CC3)cc12 [FAPI-04, reference compound]
Rmax (maximum theoretical analyte binding capacity) (Human FAP Protein): 21.7 RU
ka (Human FAP Protein): 845000 M⁻¹ s⁻¹
kd (Human FAP Protein): 0.000311 s⁻¹

N#C[C@@H]1CC(F)(F)CN1C(=O)CNC(=O)c1ccnc2ccc(OCCCN3CCN(C(=O)[C@H](CCCCNC(=O)c4cccc(OS(=O)(=O)F)c4)NC(=O)CN4CCN(CC(=O)O)CCN(CC(=O)O)CCN(CC(=O)O)CC4)CC3)cc12 [FAPI-CB-02]
selectivity to FAP protein over homologous proteins DPP-4 and PREP (FAP, DPP-4 and PREP): high selectivity
tumor inhibition effect (HT-1080-FAP tumor [1]): significantly better tumor inhibition effect
tumor inhibition effect (HT-1080-FAP tumor [2]): significantly better tumor inhibition effect
improvement of maximum standard tumor uptake value (SUVmax) compared with FAPI-04 (HT-1080-FAP tumor [3]): ~4 times

O=C(O)CC[C@H](NC(=O)N[C@@H](CCCCNC(=O)[C@H](Cc1ccc2ccccc2c1)NC(=O)[C@H]1CC[C@H](CNC(=O)[C@H](CCCCNC(=O)CCc2cccc(S(=O)(=O)F)c2)NC(=O)CN2CCN(CC(=O)O)CCN(CC(=O)O)CCN(CC(=O)O)CC2)CC1)C(=O)O)C(=O)O [PSMA-CB-05]
affinity (LNCaP cells): good affinity

C[C@@H](O)[C@H](NC(=O)[C@@H]1CSSC[C@H](NC(=O)[C@@H](Cc2ccccc2)NC(=O)CN2CCN(CC(=O)O)CCN(CC(=O)O)CCN(CC(=O)O)CC2)C(=O)N[C@@H](Cc2ccc(OS(=O)(=O)F)cc2)C(=O)N[C@H](Cc2c[nH]c3ccccc23)C(=O)N[C@@H](CCCCN)C(=O)N[C@@H]([C@@H](C)O)C(=O)N1)C(=O)O [SSTR2-CB-02]
affinity (AR42J cells): good affinity
